Measurements as given in the NIST ThermoML archive (doi:10.1021/je1005196).

Key:
[1] = excess molar enthalpy (molar enthalpy of mixing); xn = mol fraction of the nth substance listed; details: 308.15 K, 101 kPa, Liquid, Calvet calorimetry
[2] = xn = mol fraction of the nth substance listed; details: 308.15 K, 101 kPa, Liquid; for excess molar volume: Direct dilatometry; for speed of sound: Linear variable-path acoustic interferometer
[3] = Liquid; for mass density / speed of sound: 101.33 kPa; for mass density: Pycnometric method; for speed of sound: Linear variable-path acoustic interferometer

CNc1ccccc1 [N-methylaniline] + C1CCOCC1
Details	excess molar enthalpy [kcal/mol]	excess molar volume [m3/mol]	speed of sound [m/s]
[1], x2 = 0.0856	-0.0264	–	–
[1], x2 = 0.1321	-0.0407	–	–
[1], x2 = 0.1976	-0.06	–	–
[1], x2 = 0.2434	-0.0727	–	–
[1], x2 = 0.3122	-0.0899	–	–
[1], x2 = 0.3876	-0.105	–	–
[1], x2 = 0.4444	-0.114	–	–
[1], x2 = 0.4878	-0.119	–	–
[1], x2 = 0.5548	-0.122	–	–
[1], x2 = 0.6233	-0.121	–	–
[1], x2 = 0.6921	-0.113	–	–
[1], x2 = 0.7432	-0.104	–	–
[1], x2 = 0.8767	-0.0624	–	–
[1], x2 = 0.9549	-0.0256	–	–
[2], x2 = 0.0541	–	–	1509
[2], x2 = 0.0764	–	-7.2e-08	–
[2], x2 = 0.1321	–	–	1490
[2], x2 = 0.1416	–	-1.25e-07	–
[2], x2 = 0.1921	–	-1.59e-07	–
[2], x2 = 0.2316	–	–	1468
[2], x2 = 0.244	–	-1.89e-07	–
[2], x2 = 0.2811	–	–	1457
[2], x2 = 0.2905	–	-2.1e-07	–
[2], x2 = 0.3451	–	-2.27e-07	–
[2], x2 = 0.3612	–	–	1437
[2], x2 = 0.3984	–	-2.37e-07	–
[2], x2 = 0.4112	–	–	1424
[2], x2 = 0.4515	–	-2.4e-07	–
[2], x2 = 0.4932	–	–	1400
[2], x2 = 0.5224	–	-2.34e-07	–
[2], x2 = 0.5638	–	–	1377
[2], x2 = 0.613	–	-2.1e-07	–
[2], x2 = 0.6148	–	–	1360
[2], x2 = 0.6873	–	-1.78e-07	–
[2], x2 = 0.6919	–	–	1332
[2], x2 = 0.7418	–	–	1313
[2], x2 = 0.7531	–	-1.44e-07	–
[2], x2 = 0.8141	–	–	1287
[2], x2 = 0.8231	–	-1.03e-07	–
[2], x2 = 0.8992	–	–	1257
[2], x2 = 0.9191	–	-4.5e-08	–
[2], x2 = 0.9514	–	–	1239

C1CCOCC1 [tetrahydropyran]
[3]
Details	mass density [kg/m3]	vapor or sublimation pressure [kPa]
298.15 K	868.6	–
308.15 K	–	13.79

Details	vapor or sublimation pressure [kPa]
[3], 298.15 K, Closed cell (Static) method	9.533

CNc1ccccc1 [N-methylaniline]
[3]
Details	mass density [kg/m3]	speed of sound [m/s]	vapor or sublimation pressure [kPa]
298.15 K	982.4	1572	–
308.15 K	–	–	0.1067

Details	vapor or sublimation pressure [kPa]
[3], 298.15 K, Closed cell (Static) method	0.0667

Nc1ccccc1 [aniline] + C1CCOCC1
Details	excess molar enthalpy [kcal/mol]	excess molar volume [m3/mol]	speed of sound [m/s]
[1], x2 = 0.0545	-0.02	–	–
[1], x2 = 0.1711	-0.0599	–	–
[1], x2 = 0.2234	-0.0767	–	–
[1], x2 = 0.2761	-0.0929	–	–
[1], x2 = 0.3509	-0.114	–	–
[1], x2 = 0.4214	-0.132	–	–
[1], x2 = 0.5512	-0.155	–	–
[1], x2 = 0.5879	-0.158	–	–
[1], x2 = 0.6213	-0.159	–	–
[1], x2 = 0.6821	-0.157	–	–
[1], x2 = 0.7511	-0.147	–	–
[1], x2 = 0.8145	-0.128	–	–
[1], x2 = 0.8914	-0.0893	–	–
[1], x2 = 0.9413	-0.0539	–	–
[2], x2 = 0.0702	–	-9.7e-08	–
[2], x2 = 0.0912	–	–	1564
[2], x2 = 0.1516	–	–	1543
[2], x2 = 0.1767	–	-2.45e-07	–
[2], x2 = 0.2381	–	-3.22e-07	–
[2], x2 = 0.2414	–	–	1510
[2], x2 = 0.2952	–	-3.84e-07	–
[2], x2 = 0.299	–	–	1490
[2], x2 = 0.3347	–	-4.2e-07	–
[2], x2 = 0.3541	–	–	1470
[2], x2 = 0.3913	–	-4.59e-07	–
[2], x2 = 0.4354	–	-4.8e-07	–
[2], x2 = 0.4417	–	–	1438
[2], x2 = 0.4904	–	-4.92e-07	–
[2], x2 = 0.5312	–	–	1404
[2], x2 = 0.5525	–	-4.87e-07	–
[2], x2 = 0.5943	–	–	1379
[2], x2 = 0.628	–	-4.56e-07	–
[2], x2 = 0.6511	–	–	1357
[2], x2 = 0.6989	–	-4.01e-07	–
[2], x2 = 0.7344	–	–	1324
[2], x2 = 0.7412	–	-3.59e-07	–
[2], x2 = 0.8117	–	–	1294
[2], x2 = 0.8548	–	-2.15e-07	–
[2], x2 = 0.883	–	–	1267
[2], x2 = 0.9204	–	-1.19e-07	–
[2], x2 = 0.9413	–	–	1245
[2], x2 = 0.9812	–	–	1231

Cc1ccccc1N [2-methylaniline]
[3]
Details	mass density [kg/m3]	speed of sound [m/s]	vapor or sublimation pressure [kPa]
298.15 K	994.2	1602	–
308.15 K	–	–	0.0667

Details	vapor or sublimation pressure [kPa]
[3], 298.15 K, Closed cell (Static) method	0.04

Cc1ccccc1N [2-methylaniline] + C1CCOCC1
Details	excess molar enthalpy [kcal/mol]	excess molar volume [m3/mol]	speed of sound [m/s]
[1], x2 = 0.0701	-0.0286	–	–
[1], x2 = 0.1765	-0.0678	–	–
[1], x2 = 0.2379	-0.0874	–	–
[1], x2 = 0.295	-0.103	–	–
[1], x2 = 0.3344	-0.113	–	–
[1], x2 = 0.3911	-0.124	–	–
[1], x2 = 0.435	-0.137	–	–
[1], x2 = 0.4901	-0.137	–	–
[1], x2 = 0.5521	-0.139	–	–
[1], x2 = 0.6276	-0.136	–	–
[1], x2 = 0.6982	-0.126	–	–
[1], x2 = 0.741	-0.117	–	–
[1], x2 = 0.8546	-0.0792	–	–
[1], x2 = 0.9201	-0.048	–	–
[2], x2 = 0.0832	–	–	1535
[2], x2 = 0.1451	–	–	1505
[2], x2 = 0.1881	–	-3.94e-07	–
[2], x2 = 0.2102	–	–	1475
[2], x2 = 0.2321	–	-4.57e-07	–
[2], x2 = 0.2918	–	–	1441
[2], x2 = 0.2967	–	-5.47e-07	–
[2], x2 = 0.3245	–	-5.75e-07	–
[2], x2 = 0.3581	–	–	1414
[2], x2 = 0.3834	–	-6.36e-07	–
[2], x2 = 0.4002	–	–	1399
[2], x2 = 0.4704	–	-7.08e-07	–
[2], x2 = 0.4981	–	–	1364
[2], x2 = 0.5181	–	-7.32e-07	–
[2], x2 = 0.5423	–	-7.37e-07	–
[2], x2 = 0.5638	–	–	1343
[2], x2 = 0.6112	–	-7.45e-07	–
[2], x2 = 0.6118	–	–	1328
[2], x2 = 0.6877	–	-7.22e-07	–
[2], x2 = 0.7148	–	–	1299
[2], x2 = 0.7414	–	-6.82e-07	–
[2], x2 = 0.7981	–	–	1277
[2], x2 = 0.8213	–	-5.66e-07	–
[2], x2 = 0.8412	–	–	1267
[2], x2 = 0.8974	–	-3.81e-07	–
[2], x2 = 0.9003	–	–	1253
[2], x2 = 0.9426	–	-2.35e-07	–
[2], x2 = 0.9628	–	–	1240

Nc1ccccc1 [aniline]
[3]
Details	mass density [kg/m3]	speed of sound [m/s]	vapor or sublimation pressure [kPa]
298.15 K	1017.2	1635	–
308.15 K	–	–	0.12

Details	vapor or sublimation pressure [kPa]
[3], 298.15 K, Closed cell (Static) method	0.0933
